Values belong to the compound of their own block, whether it stands above or below them.
Experiments:
[1] = target: Tyrosine-protein kinase ABL1 (Homo sapiens, UniProt P00519); test: Selectivity interaction (HotSpot assay platform (Reaction Biology)) EUB0000632a ABL1; settings: at 1 µM
[2] = target: Protein-tyrosine kinase 6 (Homo sapiens) (UniProt Q13882); test: Selectivity interaction (HotSpot assay platform (Reaction Biology)) EUB0000632a PTK6; settings: at 1 µM
[3] = target: Tyrosine-protein kinase Fyn (Homo sapiens, UniProt P06241); test: Selectivity interaction (HotSpot assay platform (Reaction Biology)) EUB0000632a FYN; settings: at 1 µM
[4] = target: Vascular endothelial growth factor receptor 2 (Homo sapiens, UniProt P35968); test: Selectivity interaction (HotSpot assay platform (Reaction Biology)) EUB0000632a KDR; settings: at 1 µM
[5] = target: 5-hydroxytryptamine receptor 1A (Homo sapiens) (UniProt P08908); test: Selectivity interaction (CEREP ExpressProfile selectivity/specificity profile (human recombinant receptors)) EUB0000213bCl HTR1A; settings: at 10 µM
Sequence of 5-hydroxytryptamine receptor 1A (Homo sapiens) (P08908 whole entry): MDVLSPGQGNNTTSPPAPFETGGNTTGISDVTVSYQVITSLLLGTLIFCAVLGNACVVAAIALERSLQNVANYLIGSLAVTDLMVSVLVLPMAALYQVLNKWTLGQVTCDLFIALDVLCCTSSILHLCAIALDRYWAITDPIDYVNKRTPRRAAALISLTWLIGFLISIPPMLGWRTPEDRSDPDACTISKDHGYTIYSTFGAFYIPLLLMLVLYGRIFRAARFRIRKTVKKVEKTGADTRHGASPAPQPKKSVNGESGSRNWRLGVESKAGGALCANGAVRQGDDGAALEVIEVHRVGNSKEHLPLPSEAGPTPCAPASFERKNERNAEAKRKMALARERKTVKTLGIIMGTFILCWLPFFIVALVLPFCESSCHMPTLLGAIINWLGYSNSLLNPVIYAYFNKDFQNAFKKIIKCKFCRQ

[6] = target: Sodium-dependent dopamine transporter (Homo sapiens, UniProt Q01959); test: Selectivity interaction (CEREP ExpressProfile selectivity/specificity profile (human recombinant receptors)) EUB0000213bCl SLC6A3; settings: at 10 µM
[7] = target: Sodium-dependent serotonin transporter (Homo sapiens) (UniProt P31645); test: Selectivity interaction (CEREP ExpressProfile selectivity/specificity profile (human recombinant receptors)) EUB0000213bCl SLC6A4; settings: at 10 µM
[8] = target: Serine/threonine-protein kinase pim-1 (Homo sapiens, UniProt P11309); test: Selectivity interaction (Kinase Profiler (Millipore)) EUB0000603a PIM1; settings: at 10 µM
Sequence of Serine/threonine-protein kinase pim-1 (P11309 whole entry, looked up): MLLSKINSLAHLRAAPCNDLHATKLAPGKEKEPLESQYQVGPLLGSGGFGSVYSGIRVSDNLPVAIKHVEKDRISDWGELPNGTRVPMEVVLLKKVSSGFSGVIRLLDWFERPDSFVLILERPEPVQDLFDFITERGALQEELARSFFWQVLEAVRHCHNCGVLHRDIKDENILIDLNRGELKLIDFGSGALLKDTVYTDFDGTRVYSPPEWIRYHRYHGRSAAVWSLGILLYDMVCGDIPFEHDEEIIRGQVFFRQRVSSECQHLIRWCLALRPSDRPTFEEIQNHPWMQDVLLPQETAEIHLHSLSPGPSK

[9] = system: Platelet-derived growth factor receptor alpha (Homo sapiens), P16234 [V561D]; test: Selectivity interaction (Kinase Profiler (Millipore)) EUB0000603a PDGFRA; settings: at 10 µM
Sequence of Platelet-derived growth factor receptor alpha (Homo sapiens), P16234 [V561D] (P16234 whole entry V561D): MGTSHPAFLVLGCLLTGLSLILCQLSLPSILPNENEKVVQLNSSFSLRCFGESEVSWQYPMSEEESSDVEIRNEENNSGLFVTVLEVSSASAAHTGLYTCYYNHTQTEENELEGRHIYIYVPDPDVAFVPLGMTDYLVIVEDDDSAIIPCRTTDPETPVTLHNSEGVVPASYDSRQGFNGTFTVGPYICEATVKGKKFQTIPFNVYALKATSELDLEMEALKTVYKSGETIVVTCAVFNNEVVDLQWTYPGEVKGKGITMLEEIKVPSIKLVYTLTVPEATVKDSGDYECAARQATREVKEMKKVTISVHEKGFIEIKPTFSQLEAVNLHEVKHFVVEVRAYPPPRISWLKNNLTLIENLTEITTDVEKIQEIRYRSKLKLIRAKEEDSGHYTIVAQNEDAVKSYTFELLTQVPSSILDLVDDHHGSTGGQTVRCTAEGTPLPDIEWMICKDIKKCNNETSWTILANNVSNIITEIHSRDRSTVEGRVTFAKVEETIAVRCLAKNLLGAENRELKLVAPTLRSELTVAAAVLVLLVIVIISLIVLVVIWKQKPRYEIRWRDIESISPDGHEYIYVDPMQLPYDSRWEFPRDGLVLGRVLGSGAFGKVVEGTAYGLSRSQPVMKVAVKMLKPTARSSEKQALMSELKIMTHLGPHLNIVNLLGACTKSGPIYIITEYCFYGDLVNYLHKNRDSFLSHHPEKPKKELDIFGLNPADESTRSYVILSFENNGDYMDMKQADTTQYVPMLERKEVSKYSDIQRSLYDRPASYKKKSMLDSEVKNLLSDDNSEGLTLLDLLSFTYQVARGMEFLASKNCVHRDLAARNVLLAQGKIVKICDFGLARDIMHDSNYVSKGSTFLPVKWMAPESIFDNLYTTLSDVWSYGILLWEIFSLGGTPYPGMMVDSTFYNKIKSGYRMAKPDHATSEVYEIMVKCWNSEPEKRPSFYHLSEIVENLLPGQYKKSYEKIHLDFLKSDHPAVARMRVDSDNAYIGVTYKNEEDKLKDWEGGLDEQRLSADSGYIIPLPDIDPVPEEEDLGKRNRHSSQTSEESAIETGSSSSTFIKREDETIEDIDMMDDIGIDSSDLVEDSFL

[10] = target: Ribosomal protein S6 kinase alpha-3 (Homo sapiens) (UniProt P51812); settings: at 10 µM
Sequence of Ribosomal protein S6 kinase alpha-3 (Homo sapiens) (P51812 whole entry): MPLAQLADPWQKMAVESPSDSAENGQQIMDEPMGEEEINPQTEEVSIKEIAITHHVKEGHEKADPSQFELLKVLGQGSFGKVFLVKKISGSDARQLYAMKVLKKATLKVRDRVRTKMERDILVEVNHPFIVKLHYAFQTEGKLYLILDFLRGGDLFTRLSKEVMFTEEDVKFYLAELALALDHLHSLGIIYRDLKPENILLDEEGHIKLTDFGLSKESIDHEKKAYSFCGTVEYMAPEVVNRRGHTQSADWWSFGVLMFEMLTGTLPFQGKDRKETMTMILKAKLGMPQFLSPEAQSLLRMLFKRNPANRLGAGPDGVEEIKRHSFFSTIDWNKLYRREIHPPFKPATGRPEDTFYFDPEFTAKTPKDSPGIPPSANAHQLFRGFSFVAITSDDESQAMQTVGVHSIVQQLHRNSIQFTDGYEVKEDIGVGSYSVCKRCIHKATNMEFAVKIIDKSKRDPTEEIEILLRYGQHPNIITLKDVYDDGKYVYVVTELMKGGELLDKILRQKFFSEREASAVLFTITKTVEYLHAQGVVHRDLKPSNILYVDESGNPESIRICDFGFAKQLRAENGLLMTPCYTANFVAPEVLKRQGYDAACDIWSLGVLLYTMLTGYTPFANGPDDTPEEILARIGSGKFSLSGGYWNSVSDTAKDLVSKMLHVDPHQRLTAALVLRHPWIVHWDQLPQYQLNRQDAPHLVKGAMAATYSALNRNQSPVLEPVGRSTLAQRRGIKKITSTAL

[11] = target: Ribosomal protein S6 kinase alpha-6 (Homo sapiens) (UniProt Q9UK32); settings: at 10 µM
Sequence of Ribosomal protein S6 kinase alpha-6 (Homo sapiens) (Q9UK32 whole entry): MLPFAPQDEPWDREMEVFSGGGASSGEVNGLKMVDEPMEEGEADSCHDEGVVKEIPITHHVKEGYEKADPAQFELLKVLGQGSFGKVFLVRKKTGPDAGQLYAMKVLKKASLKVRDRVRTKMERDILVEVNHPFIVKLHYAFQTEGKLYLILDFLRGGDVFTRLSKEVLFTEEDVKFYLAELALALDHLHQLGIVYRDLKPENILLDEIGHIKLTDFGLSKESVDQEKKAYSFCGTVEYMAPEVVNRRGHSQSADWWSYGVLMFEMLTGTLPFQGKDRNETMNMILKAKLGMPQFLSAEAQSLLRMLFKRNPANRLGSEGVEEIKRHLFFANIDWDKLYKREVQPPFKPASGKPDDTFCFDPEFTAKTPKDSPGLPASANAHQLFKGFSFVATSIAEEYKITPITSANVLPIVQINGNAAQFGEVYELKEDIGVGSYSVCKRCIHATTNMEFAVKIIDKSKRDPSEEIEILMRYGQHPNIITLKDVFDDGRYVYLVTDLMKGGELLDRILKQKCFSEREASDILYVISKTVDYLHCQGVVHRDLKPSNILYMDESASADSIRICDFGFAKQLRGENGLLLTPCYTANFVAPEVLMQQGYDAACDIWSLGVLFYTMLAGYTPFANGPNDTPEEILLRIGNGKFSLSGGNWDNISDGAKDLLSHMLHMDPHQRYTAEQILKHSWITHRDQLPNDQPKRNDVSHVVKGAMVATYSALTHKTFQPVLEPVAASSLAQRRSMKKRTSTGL

[12] = target: Serine/threonine-protein kinase N2 (Homo sapiens) (UniProt Q16513); settings: at 10 µM
[13] = target: Protein arginine N-methyltransferase 7 (Homo sapiens) (UniProt Q9NVM4); test: Selectivity interaction (Methyltransferase panel) EUB0000226b PRMT7; settings: at 10 µM
[14] = target: T1, Tyrosine-protein kinase JAK3 (Homo sapiens) (UniProt P52333); settings: at 500 nM
T1 sequence (whole entry): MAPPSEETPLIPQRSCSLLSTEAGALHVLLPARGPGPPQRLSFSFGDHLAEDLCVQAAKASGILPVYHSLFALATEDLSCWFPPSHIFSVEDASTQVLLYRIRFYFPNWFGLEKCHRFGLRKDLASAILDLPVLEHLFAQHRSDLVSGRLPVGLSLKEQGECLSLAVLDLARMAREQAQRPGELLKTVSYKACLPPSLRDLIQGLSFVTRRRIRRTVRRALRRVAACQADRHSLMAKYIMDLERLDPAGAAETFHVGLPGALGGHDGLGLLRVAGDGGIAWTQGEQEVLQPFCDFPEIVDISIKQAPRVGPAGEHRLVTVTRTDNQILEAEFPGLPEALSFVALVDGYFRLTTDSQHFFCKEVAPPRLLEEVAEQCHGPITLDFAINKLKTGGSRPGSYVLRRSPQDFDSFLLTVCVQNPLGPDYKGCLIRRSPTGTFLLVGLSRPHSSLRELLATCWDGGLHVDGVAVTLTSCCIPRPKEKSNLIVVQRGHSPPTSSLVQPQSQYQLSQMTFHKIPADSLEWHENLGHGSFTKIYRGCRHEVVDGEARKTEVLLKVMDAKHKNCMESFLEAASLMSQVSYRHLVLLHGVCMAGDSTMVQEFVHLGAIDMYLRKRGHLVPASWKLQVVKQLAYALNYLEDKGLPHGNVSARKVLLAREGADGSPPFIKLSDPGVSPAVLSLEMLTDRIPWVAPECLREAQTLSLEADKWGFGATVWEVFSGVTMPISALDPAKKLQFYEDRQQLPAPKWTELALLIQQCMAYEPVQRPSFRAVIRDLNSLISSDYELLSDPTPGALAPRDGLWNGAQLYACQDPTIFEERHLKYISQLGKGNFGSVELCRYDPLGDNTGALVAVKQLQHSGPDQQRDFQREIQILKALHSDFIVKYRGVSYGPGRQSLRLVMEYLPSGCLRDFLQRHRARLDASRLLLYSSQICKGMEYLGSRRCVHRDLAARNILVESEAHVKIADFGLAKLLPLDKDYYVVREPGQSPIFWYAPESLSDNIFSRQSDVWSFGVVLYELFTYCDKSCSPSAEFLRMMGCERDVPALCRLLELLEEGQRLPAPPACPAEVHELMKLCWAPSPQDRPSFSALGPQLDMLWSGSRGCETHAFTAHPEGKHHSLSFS

Sequence of Protein-tyrosine kinase 6 (Homo sapiens) (Q13882 whole entry, looked up): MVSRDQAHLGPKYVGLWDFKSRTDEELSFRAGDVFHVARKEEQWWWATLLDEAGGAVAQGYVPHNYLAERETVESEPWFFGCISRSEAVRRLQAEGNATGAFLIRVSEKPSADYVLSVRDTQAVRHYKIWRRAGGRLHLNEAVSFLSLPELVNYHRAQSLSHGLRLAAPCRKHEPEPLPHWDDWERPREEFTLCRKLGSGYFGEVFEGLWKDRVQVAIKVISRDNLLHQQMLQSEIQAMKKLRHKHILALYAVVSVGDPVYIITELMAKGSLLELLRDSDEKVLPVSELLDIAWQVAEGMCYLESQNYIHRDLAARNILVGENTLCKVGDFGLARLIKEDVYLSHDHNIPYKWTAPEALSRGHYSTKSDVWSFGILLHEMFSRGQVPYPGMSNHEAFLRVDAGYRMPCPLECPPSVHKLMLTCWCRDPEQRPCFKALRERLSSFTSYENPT
Sequence of Tyrosine-protein kinase ABL1 (P00519 whole entry): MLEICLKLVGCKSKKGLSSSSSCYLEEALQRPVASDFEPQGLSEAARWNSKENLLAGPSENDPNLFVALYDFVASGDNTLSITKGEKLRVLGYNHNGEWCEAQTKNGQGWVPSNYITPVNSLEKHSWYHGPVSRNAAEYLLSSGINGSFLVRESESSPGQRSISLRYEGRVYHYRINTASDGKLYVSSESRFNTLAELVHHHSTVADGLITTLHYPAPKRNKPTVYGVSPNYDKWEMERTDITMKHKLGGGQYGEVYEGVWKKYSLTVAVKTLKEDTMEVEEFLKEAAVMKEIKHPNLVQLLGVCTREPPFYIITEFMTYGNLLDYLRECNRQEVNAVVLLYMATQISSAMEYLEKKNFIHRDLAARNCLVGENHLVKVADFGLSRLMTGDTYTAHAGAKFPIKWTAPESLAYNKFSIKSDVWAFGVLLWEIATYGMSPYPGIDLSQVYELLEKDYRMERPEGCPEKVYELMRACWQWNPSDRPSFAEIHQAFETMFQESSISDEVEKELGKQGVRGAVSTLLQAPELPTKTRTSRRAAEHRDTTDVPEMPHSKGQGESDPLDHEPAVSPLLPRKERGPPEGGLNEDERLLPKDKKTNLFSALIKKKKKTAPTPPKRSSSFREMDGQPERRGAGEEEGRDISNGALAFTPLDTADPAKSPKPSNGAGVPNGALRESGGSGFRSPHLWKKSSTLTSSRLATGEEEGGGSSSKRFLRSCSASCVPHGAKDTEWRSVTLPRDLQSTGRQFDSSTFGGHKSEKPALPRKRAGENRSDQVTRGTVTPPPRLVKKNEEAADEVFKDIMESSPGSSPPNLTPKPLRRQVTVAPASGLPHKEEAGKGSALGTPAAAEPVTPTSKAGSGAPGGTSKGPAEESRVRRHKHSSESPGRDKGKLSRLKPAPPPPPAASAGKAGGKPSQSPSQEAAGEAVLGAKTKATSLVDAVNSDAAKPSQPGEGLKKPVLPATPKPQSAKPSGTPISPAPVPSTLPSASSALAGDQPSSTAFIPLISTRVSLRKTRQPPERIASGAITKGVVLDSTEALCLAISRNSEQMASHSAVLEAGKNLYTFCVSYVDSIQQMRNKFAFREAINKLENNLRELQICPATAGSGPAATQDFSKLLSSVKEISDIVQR

SMILES: CC(C)S(=O)(=O)c1ccc2nccc(Nc3ccc4scnc4c3)c2c1
- % of inhibition [1]: 12%
- % of inhibition [2]: 13%
- % of inhibition [3]: 18%
- % of inhibition [4]: 17%

SMILES: c1ccc([C@@H]2C[C@H]2NC2CCNCC2)cc1
- % of inhibition [5]: 49%
- % of inhibition [6]: 39%
- % of inhibition [7]: 74%

SMILES: CN(C)C(=O)/C(C#N)=C/c1ccc(-c2nc3cnc4[nH]ccc4c3n2C2CCCCC2)o1
- % of inhibition [14]: 97%

Further lines, results first:

- % of inhibition [8]: 90%
- % of inhibition [9]: 96%
- % of inhibition [10]: 92%
- % of inhibition [11]: 92%
- % of inhibition [12]: 92%
SMILES: C[C@@H](Oc1cc(-n2cnc3ccc(CN4CCN(C)CC4)cc32)sc1C(N)=O)c1ccccc1C(F)(F)F

- % activity remaining [13]: 75%
SMILES: Nc1ncnc2c1ccn2[C@@H]1O[C@H]([C@H](O)c2ccccc2)[C@@H](O)[C@H]1O

Reference: ChEMBL document CHEMBL5212743, “Selectivity Literature for EUbOPEN Chemogenomics Library wave 3” (2023)
